Reference: patent US5358951A, “Angiotensin II receptor blocking 2, 3, 6 substituted quinazolinones” (American Cyanamid Company, priority 1993, dated 1994)

System: vasopressor response of angiotensin II
Assay: AII Challenge: antagonism of angiotensin II vasopressor response;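 on Response Average Change: post-dose Angiotensin II-evoked rise in systolic blood pressure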
Format: in vivo
Conditions: for inhibition in vivo at 3 mg/kg / inhibition in vivo at 5 mg/kg: Rattus norvegicus; for inhibition in vivo at 3 mg/kg: iv; for inhibition in vivo at 5 mg/kg: po
Procedure, shortened: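 Conscious male SHR (16-20 weeks) with aortic and caval cannulae received angiotensin II at 0.05 and 0.1 ug/kg i.v. before and 30-300 min after compound dosing (i.v., i.p. or oral). Blockade is expressed as % of each rat's predose rise in systolic pressure.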

For `CCCCc1nc2ccc(C3(C)CC4c5ccccc5CCN4O3)cc2c(=O)n1Cc1ccc(-c2ccccc2-c2nnn[nH]2)cc1` (stereo not drawn) [Example 64, Cis and Trans-2-Butyl-6-(1,5,6,10b-tetrahydro-2-methyl-2H-isoxazolo[3,2-a]isoquinolin-2-yl)-3-[[2'-(1H-tetrazol-5-yl][1,1'-biphenyl]-4-yl]methyl]-4(3H)-quinazolinone], the “Response Average Change” value (3 mg/kg I.V., AII 0.05 mcg/kg IV, 30 min post dose) was 2.5 mmHg, the “Response Average Change” value (3 mg/kg I.V., AII 0.05 mcg/kg IV, 60 min post dose) was 2.5 mmHg and the “Response Average Change” value (3 mg/kg I.V., AII 0.05 mcg/kg IV, 90 min post dose) was 7.5 mmHg. The “Response Average Change” value (3 mg/kg I.V., AII 0.05 mcg/kg IV, 180 min post dose) was 7.5 mmHg, the “Response Average Change” value (3 mg/kg I.V., AII 0.05 mcg/kg IV, 240 min post dose) was 18 mmHg and the “Response Average Change” value (3 mg/kg I.V., AII 0.05 mcg/kg IV, 300 min post dose) was 7.5 mmHg. The “Response Average Change” value (3 mg/kg I.V., AII 0.1 mcg/kg IV, 30 min post dose) was 5 mmHg, the “Response Average Change” value (3 mg/kg I.V., AII 0.1 mcg/kg IV, 60 min post dose) was 5 mmHg and the “Response Average Change” value (3 mg/kg I.V., AII 0.1 mcg/kg IV, 90 min post dose) was 7.5 mmHg. For the same compound, the “Response Average Change” value (3 mg/kg I.V., AII 0.1 mcg/kg IV, 120 min post dose) was 10 mmHg, the “Response Average Change” value (3 mg/kg I.V., AII 0.1 mcg/kg IV, 180 min post dose) was 11 mmHg and the “Response Average Change” value (3 mg/kg I.V., AII 0.1 mcg/kg IV, 240 min post dose) was 12.5 mmHg. The “Response Average Change” value (3 mg/kg I.V., AII 0.1 mcg/kg IV, 300 min post dose) was 18.5 mmHg, the “Response Average Change” value (3 mg/kg I.V., AII 0.5 mcg/kg IV, 120 min post dose) was 5 mmHg and the “Response Average Change” value (5 mg/kg P.O., AII 0.05 mcg/kg IV, 30 min post dose) was 15 mmHg. The “Response Average Change” value (5 mg/kg P.O., AII 0.05 mcg/kg IV, 60 min post dose) was 18.5 mmHg, the “Response Average Change” value (5 mg/kg P.O., AII 0.05 mcg/kg IV, 120 min post dose) was 20 mmHg and the “Response Average Change” value (5 mg/kg P.O., AII 0.05 mcg/kg IV, 180 min post dose) was 17.5 mmHg. For the same compound, the “Response Average Change” value (5 mg/kg P.O., AII 0.1 mcg/kg IV, 30 min post dose) was 27.5 mmHg, the “Response Average Change” value (5 mg/kg P.O., AII 0.1 mcg/kg IV, 60 min post dose) was 23.5 mmHg and the “Response Average Change” value (5 mg/kg P.O., AII 0.1 mcg/kg IV, 90 min post dose) was 22 mmHg. For the same compound, the “Response Average Change” value (5 mg/kg P.O., AII 0.1 mcg/kg IV, 120 min post dose) was 20 mmHg, the “Response Average Change” value (5 mg/kg P.O., AII 0.1 mcg/kg IV, 180 min post dose) was 24 mmHg and the “Response Average Change” value (5 mg/kg P.O., AII 0.5 mcg/kg IV, 90 min post dose) was 20 mmHg. For the same compound, the inhibition in vivo at 3 mg/kg (0.5 h, 3 mg/kg I.V., AII 0.05 mcg/kg IV, 30 min post dose) was 93%, the inhibition in vivo at 3 mg/kg (0.5 h, 3 mg/kg I.V., AII 0.1 mcg/kg IV, 30 min post dose) was 91% and the inhibition in vivo at 3 mg/kg (1 h, 3 mg/kg I.V., AII 0.05 mcg/kg IV, 60 min post dose) was 93%. For the same compound, the inhibition in vivo at 3 mg/kg (1 h, 3 mg/kg I.V., AII 0.1 mcg/kg IV, 60 min post dose) was 91%, the inhibition in vivo at 3 mg/kg (2 h, 3 mg/kg I.V., AII 0.1 mcg/kg IV, 120 min post dose) was 81% and the inhibition in vivo at 3 mg/kg (2 h, 3 mg/kg I.V., AII 0.5 mcg/kg IV, 120 min post dose) was 86%. The inhibition in vivo at 3 mg/kg (3 h, 3 mg/kg I.V., AII 0.05 mcg/kg IV, 180 min post dose) was 79%, the inhibition in vivo at 3 mg/kg (3 h, 3 mg/kg I.V., AII 0.1 mcg/kg IV, 180 min post dose) was 80% and the inhibition in vivo at 3 mg/kg (4 h, 3 mg/kg I.V., AII 0.05 mcg/kg IV, 240 min post dose) was 51%. For the same compound, the inhibition in vivo at 3 mg/kg (4 h, 3 mg/kg I.V., AII 0.1 mcg/kg IV, 240 min post dose) was 77%, the inhibition in vivo at 3 mg/kg (5 h, 3 mg/kg I.V., AII 0.05 mcg/kg IV, 300 min post dose) was 79% and the inhibition in vivo at 3 mg/kg (5 h, 3 mg/kg I.V., AII 0.1 mcg/kg IV, 300 min post dose) was 66%. It also gave an inhibition in vivo at 3 mg/kg ([…], 3 mg/kg I.V., AII 0.05 mcg/kg IV, 90 min post dose) of 79%, an inhibition in vivo at 3 mg/kg ([…], 3 mg/kg I.V., AII 0.1 mcg/kg IV, 90 min post dose) of 86% and an inhibition in vivo at 5 mg/kg (0.5 h, 5 mg/kg P.O., AII 0.05 mcg/kg IV, 30 min post dose) of 54%. For the same compound, the inhibition in vivo at 5 mg/kg (0.5 h, 5 mg/kg P.O., AII 0.1 mcg/kg IV, 30 min post dose) was 25%, the inhibition in vivo at 5 mg/kg (1 h, 5 mg/kg P.O., AII 0.05 mcg/kg IV, 60 min post dose) was 43% and the inhibition in vivo at 5 mg/kg (1 h, 5 mg/kg P.O., AII 0.1 mcg/kg IV, 60 min post dose) was 36%. It also gave an inhibition in vivo at 5 mg/kg (2 h, 5 mg/kg P.O., AII 0.05 mcg/kg IV, 120 min post dose) of 38%, an inhibition in vivo at 5 mg/kg (2 h, 5 mg/kg P.O., AII 0.1 mcg/kg IV, 120 min post dose) of 45% and an inhibition in vivo at 5 mg/kg (3 h, 5 mg/kg P.O., AII 0.05 mcg/kg IV, 180 min post dose) of 46%. For the same compound, the inhibition in vivo at 5 mg/kg (3 h, 5 mg/kg P.O., AII 0.1 mcg/kg IV, 180 min post dose) was 34%, the inhibition in vivo at 5 mg/kg ([…], 5 mg/kg P.O., AII 0.1 mcg/kg IV, 90 min post dose) was 40% and the inhibition in vivo at 5 mg/kg ([…], 5 mg/kg P.O., AII 0.5 mcg/kg IV, 90 min post dose) was 38%.
